The text below walks through data of patent publication US10322037B2, “Absorbent article” (UNICHARM CORPORATION, priority 2012, dated 2019).

The text on the data set: As used herein, the term “solubility” in regard to water solubility includes cases where the sample completely dissolves in deionized water to form a homogeneous mixture, and cases where the sample is completely emulsified. As used herein, “completely” means that no mass of the sample remains in the deionized water.

Structures are written as SMILES.

Regarding `CCCCCCCCCCCCCC(=O)OCCCCCCCCCCCC` [2-19], the “Water solubility” value is less than 0.05 g.
To `CCCCCCCCCCCCOC(=O)CCCCCCCCCCC` [2-18] belongs less than 0.05 g.
